The structures appear in SMILES notation.

One experiment deals with T1, PI3K alpha (Homo sapiens, UniProt P42336).
T1 construct: p85(iSH2) fusion partner (see partner chain) (N); His tag (C); made in house; host or cells: baculovirus; Tn5 (Trichoplusia ni) or TiniPro insect cells
As to the kind of experiment: PI3K alpha kinase assay (Kinase-Glo luminescence). It counts as biochemical. As for the experimental part: (§1) In a more preferred assay, the kinase reaction is performed in a final volume of 10 μL per well of a low volume non binding CORNING, 384 well black plate (Cat. No. #3676). The final concentrations of ATP and phosphatidyl inositol (PI) in the assay are 1 μM and 10 μg/mL respectively. The reaction is started by the addition of ATP.
(§2) The components of the assay are added per well as follows:
(§3) […] in 90% DMSO per well, in columns 1-20, 8 concentrations (1/3 and 1/3.33 serial dilution step) in single. • Low control: […] of 90% DMSO in half the wells of columns 23-24 (0.45% in final). • High control: […] of reference compound (e.g. compound of Example 7 in WO 2006/122806) in the other half of columns 23-24 (2.5 μM in final). • Standard: […] of reference compound as just mentioned diluted as the test compounds in columns 21-22 • 20 mL ‘buffer’ are prepared per assay: • 200 μL of 1M TRIS HCl pH7.5 (10 mM in final) • 60 μL of 1M MgCl2 (3 mM in final) • 500 μL of 2M NaCl (50 mM in final) • 100 μL of 10% CHAPS (0.05% in final) • 200 μL of 100 mM DTT (1 mM in final) • 18.94 mL of nanopure water • 10 mL ‘PI’ are prepared per assay: • 200 μL of 1 mg/ml L-alpha-Phosphatidylinositol (Liver Bovine, Avanti Polar Lipids Cat. No. 840042C MW=909.12) prepared in 3% OctylGlucoside (10 μg/ml in final) • 9.8 mL of ‘buffer’ • 10 mL ‘ATP’ are prepared per assay: • 6.7 μL of 3 mM stock of ATP giving a final concentration of 1 μM per well • 10 mL of ‘buffer’ • 2.5 mL of each PI3K construct are prepared per assay in ‘PI’ with the following final concentration: • 10 nM PI3K alfa EMV B1075 • 25 nM beta EMV BV949 • 10 nM delta EMV BV1060 • 150 nM gamma EMV BV950 • 5 μL of ‘PI/PI3K’ are added per well. • 5 μl ‘ATP’ are added per well to start the reaction. • The plates are then incubated at room temperature for 60 minutes (alfa, beta, delta) or 120 minutes (gamma). • The reaction is terminated by the addition of 10 μL Kinase-Glo (Promega Cat. No. #6714). • The assay plates are read after 10 minutes in Synergy 2 reader (BioTek, Vermont USA) with an integration time of 100 milliseconds and sensitivity set to 191. • Output: The High control is around 60'000 counts and the Low control is 30'000 or lower • This luminescence assay gives a useful Z′ ratio between 0.4 and 0.7
Two different constructs, BV 1052 and BV 1075, are used to generate the PI3 Kinase a proteins for compound screening.
(§4) IC50 is determined by a four parameter curve fitting routine that comes along with “excel fit”. […] Alternatively, IC50 values are calculated using idbsXLfit model 204, which is a 4 parameter logistic model.

The target in another experiment is T2, PI3K beta (Homo sapiens, UniProt P42338).
T2 construct: for the full-length p110-b subunit are generated and fused by overlapping PCR; p85(iSH2) fusion partner (see partner chain) (N); His tag (C); made in house; host or cells: baculovirus; Tn5 (Trichoplusia ni) or TiniPro insect cells
Nature of the experiment: PI3K beta kinase assay (Kinase-Glo luminescence). It counts as biochemical. As for the experimental part:
as §1, §2, §3
PI3Kβ BV-949 p85(iSH2)-Gly Linker-p110b(Full-Length)-C-Term his Tag
as §4
For orientation: In Kinase-Glo more light means more ATP remaining.

Another experiment addresses T3, PI3K delta (Homo sapiens, UniProt O00329).
T3 construct: for the full-length p110-d subunit are generated and fused by overlapping PCR; p85(iSH2) fusion partner (see partner chain) (N); His tag (C); made in house; host or cells: baculovirus; Tn5 (Trichoplusia ni) or TiniPro insect cells
As to the kind of experiment: PI3K delta kinase assay (Kinase-Glo luminescence). It counts as biochemical. As for the experimental part: as §1, §2, §3
PI3Kγ BV-1060 p85(iSH2)-Gly Linker-p110d(Full-Length)-C-Term his Tag
as §4

The next experiment concerns the target T4, mTOR (Homo sapiens, UniProt P42345).
T4 construct: purchased Invitrogen Corporation (Carlsbad/CA, USA) PV4753
Nature of the experiment: Biochemical assay for m-TOR by TR-FRET. The conditions noted are these: 8 μM ATP, 400 nM GFP-4EBP1, 0.5 nM mTOR. The essentials:
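Steps: ATP (8 μM final) plus GFP-4EBP1 (400 nM final) combined with mTOR (0.5 nM final), incubated at rt; buffer HEPES pH 7.5 with 10 mM MnCl2, NaCl, EGTA, DTT. Then stopped with EDTA/Tb3+-anti-p4EBP1 pT46 Ab (0.5 nM). Plates read after 15 min.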

For experiment [1], the system named is PKB Ser473 phosphorylation in Rat1-myr-HA-p110 beta cells. Nature of the experiment: Reverse protein array assay, PKB Ser473 phosphorylation in Rat1-myr-p110 beta cells. The format is cell-based. The conditions noted are these: 0.5 h, pAkt Ser473, 30 minutes incubation, read-out: p-PKB IC50. A digest of the protocol:
(§5)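 Measured: PKB Ser473 phosphorylation by reverse protein array in Rat1 cells expressing myr-HA-p110 alpha, beta or delta, after 30 min compound treatment at 37 °C with 0.2% DMSO vehicle.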

The subject of experiment [2] is PKB Ser473 phosphorylation in Rat1-myr-HA-p110 delta cells. Nature of the experiment: Reverse protein array assay, PKB Ser473 phosphorylation in Rat1-myr-p110 delta cells. The format is cell-based. The conditions noted are these: read-out: p-PKB IC50. A digest of the protocol: as §5
Experiment [3] relates to PKB Ser473 phosphorylation in Rat1-myr-HA-p110 alpha cells. As to the kind of experiment: Reverse protein array assay, PKB Ser473 phosphorylation in Rat1-myr-p110 alpha cells. It counts as cell-based. The conditions noted are these: 0.5 h, pAkt Ser473, 30 minutes compound incubation, read-out: p-PKB IC50. A digest of the protocol: as §5
The test system of experiment [4] is S6 Ribosomal Protein phosphorylation Ser235/236 in TSC1 null mouse embryo fibroblast (MEF) cells. Nature of the experiment: Reverse protein array assay, S6 Ribosomal Protein phosphorylation Ser235/236 in TSC1 null MEF cells. The format is cell-based. The conditions noted are these: 1 h, pS6 ribosomal protein Ser235/236, 60 minutes incubation, read-out: p-S6 IC50. The essentials: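 TSC1−/− MEFs, seeded and held ≥20 h at 37 °C/5% CO2, were exposed to 8-step serial compound dilutions (0.02% DMSO final; DMSO vehicle control) for 60 min at 37 °C. Cells were then lysed on ice for 10 min and lysates spotted onto reverse protein array chips.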

T3 sequence (O00329 with tags, fused parts or gaps limits assumed): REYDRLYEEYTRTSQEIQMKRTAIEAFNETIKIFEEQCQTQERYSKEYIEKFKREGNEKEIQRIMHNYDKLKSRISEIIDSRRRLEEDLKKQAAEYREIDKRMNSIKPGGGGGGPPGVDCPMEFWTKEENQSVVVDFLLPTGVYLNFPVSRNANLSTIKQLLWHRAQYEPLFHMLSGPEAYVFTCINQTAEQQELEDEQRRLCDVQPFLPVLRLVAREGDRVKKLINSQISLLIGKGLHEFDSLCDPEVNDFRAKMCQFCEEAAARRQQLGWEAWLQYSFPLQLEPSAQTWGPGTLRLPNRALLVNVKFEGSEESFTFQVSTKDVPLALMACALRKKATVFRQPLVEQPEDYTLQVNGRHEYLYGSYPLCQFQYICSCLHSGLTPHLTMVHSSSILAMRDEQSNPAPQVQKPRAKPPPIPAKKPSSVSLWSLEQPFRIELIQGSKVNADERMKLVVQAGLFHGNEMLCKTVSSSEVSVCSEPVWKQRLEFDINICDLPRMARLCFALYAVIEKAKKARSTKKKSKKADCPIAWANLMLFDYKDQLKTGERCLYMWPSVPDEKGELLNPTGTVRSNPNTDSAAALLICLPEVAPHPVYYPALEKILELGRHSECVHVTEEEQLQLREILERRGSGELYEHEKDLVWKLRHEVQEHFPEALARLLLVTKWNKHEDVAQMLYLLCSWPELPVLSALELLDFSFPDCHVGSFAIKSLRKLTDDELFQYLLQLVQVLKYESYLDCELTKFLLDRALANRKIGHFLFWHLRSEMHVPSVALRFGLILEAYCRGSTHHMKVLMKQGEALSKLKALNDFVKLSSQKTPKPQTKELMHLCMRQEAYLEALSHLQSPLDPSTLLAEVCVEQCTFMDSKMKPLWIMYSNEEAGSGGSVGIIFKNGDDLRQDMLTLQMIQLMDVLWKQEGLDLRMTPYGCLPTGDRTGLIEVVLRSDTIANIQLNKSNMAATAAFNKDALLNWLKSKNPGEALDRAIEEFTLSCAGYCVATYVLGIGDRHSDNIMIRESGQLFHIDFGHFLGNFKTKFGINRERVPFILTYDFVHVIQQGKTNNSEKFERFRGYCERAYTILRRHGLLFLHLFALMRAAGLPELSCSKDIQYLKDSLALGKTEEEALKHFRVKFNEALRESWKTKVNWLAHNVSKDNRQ
T1 sequence (P42336 with tags, fused parts or gaps limits assumed): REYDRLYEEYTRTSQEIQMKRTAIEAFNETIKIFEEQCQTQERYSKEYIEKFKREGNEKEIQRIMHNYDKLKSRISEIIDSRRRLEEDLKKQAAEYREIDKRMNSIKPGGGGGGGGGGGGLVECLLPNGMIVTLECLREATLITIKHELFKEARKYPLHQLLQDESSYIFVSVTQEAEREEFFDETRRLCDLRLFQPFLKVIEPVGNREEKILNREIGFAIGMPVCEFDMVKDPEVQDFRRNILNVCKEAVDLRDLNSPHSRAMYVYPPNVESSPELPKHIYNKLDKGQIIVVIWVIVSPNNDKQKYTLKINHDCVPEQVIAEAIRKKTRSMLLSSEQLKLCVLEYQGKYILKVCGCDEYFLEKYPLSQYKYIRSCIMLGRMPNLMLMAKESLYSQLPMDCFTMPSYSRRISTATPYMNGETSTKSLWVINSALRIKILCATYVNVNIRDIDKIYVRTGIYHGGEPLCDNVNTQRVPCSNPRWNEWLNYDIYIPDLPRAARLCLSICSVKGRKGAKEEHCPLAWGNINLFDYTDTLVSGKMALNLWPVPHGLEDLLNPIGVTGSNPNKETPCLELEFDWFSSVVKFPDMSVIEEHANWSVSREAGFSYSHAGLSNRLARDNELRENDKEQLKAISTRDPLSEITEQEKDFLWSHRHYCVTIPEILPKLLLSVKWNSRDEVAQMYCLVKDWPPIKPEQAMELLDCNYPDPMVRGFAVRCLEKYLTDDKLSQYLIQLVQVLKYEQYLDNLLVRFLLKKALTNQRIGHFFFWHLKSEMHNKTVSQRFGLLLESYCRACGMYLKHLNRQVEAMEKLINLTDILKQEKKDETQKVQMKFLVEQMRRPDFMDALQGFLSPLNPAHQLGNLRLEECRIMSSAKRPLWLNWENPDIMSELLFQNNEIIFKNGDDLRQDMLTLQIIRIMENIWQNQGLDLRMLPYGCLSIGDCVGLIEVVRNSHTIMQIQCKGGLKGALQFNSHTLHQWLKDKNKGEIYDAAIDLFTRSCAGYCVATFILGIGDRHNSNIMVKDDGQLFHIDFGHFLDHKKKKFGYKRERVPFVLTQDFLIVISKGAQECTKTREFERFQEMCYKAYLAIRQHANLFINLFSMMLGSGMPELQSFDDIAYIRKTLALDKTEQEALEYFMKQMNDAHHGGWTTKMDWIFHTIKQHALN
T2 sequence (P42338 with tags, fused parts or gaps limits assumed): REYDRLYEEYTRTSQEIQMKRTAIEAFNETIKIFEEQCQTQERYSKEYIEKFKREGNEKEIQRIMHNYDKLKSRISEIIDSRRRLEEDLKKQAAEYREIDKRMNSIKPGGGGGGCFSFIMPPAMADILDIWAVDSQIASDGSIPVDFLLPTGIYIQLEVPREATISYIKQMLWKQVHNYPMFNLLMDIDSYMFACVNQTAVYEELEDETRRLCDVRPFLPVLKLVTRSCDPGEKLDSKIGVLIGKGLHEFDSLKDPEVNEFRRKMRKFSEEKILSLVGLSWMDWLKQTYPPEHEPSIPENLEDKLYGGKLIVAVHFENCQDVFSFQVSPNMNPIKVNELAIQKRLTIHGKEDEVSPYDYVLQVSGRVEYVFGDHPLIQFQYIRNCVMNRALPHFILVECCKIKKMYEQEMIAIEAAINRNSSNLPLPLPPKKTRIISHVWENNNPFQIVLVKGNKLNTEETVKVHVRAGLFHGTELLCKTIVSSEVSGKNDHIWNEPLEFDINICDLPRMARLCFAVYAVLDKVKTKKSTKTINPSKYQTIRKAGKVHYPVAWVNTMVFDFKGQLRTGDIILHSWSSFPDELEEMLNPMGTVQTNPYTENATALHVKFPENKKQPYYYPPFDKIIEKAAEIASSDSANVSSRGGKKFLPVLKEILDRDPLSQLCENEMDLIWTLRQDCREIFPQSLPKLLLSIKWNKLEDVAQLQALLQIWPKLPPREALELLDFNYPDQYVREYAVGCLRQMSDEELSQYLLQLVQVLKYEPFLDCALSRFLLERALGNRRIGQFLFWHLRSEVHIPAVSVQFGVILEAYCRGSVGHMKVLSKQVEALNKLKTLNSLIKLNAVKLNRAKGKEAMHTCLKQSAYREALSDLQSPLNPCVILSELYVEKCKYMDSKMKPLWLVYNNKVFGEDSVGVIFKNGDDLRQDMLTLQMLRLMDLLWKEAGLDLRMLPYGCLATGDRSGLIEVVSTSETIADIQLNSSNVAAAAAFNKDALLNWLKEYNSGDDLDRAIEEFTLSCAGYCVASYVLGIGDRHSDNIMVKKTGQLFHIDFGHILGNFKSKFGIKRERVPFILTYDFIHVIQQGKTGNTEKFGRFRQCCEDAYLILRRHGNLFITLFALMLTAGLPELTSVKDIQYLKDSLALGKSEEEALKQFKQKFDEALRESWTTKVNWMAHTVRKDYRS
T4 sequence (P42345 1360-2549 limits assumed): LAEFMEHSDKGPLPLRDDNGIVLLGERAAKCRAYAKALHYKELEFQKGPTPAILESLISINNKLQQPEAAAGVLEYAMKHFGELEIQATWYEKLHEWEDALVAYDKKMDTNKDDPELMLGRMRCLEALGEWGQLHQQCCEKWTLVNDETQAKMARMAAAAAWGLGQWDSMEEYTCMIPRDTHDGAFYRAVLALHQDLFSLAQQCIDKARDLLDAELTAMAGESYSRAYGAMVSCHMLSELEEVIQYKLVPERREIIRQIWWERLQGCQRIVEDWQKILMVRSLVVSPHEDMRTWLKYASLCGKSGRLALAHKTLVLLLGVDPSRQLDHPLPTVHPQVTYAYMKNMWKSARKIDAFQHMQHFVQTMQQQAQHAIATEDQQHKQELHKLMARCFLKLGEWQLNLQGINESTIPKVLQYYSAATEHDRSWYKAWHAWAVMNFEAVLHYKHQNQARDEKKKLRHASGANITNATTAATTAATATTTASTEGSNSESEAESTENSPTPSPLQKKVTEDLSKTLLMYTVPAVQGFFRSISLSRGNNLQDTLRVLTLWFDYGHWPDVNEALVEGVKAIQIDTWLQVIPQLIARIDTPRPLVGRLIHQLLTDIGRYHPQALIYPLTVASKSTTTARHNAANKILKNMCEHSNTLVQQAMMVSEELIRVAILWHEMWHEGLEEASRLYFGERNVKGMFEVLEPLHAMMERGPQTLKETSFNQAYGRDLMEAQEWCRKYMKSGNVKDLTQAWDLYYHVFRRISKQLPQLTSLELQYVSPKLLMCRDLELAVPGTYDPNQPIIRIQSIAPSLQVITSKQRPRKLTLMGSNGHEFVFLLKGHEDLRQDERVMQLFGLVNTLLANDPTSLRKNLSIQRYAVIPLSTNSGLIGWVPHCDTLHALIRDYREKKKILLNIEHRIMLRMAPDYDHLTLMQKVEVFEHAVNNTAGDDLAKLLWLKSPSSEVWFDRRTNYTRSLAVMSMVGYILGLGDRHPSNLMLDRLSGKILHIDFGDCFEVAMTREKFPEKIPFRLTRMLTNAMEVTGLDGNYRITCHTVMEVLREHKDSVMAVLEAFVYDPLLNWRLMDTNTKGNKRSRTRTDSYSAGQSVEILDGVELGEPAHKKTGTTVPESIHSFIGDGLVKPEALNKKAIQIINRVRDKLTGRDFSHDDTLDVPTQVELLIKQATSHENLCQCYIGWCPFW

With `CCn1c(=O)n(C)c2ncc(-c3ccc4ncc5c(c4c3)n(-c3cn(C)nc3C)c(=O)n5C)cc21` [Example 68, 1-(1,3-Dimethyl-1H-pyrazol-4-yl)-8-(1-ethyl-3-methyl-2-oxo-2,3-dihydro-1H-imidazo[4,5-b]pyridin-6-yl)-3-methyl-1,3-dihydro-imidazo[4,5-c]quinolin-2-one], the IC50 on PI3K alpha worked out at 21 nM; at PI3K beta, 61 nM; at PI3K delta, 29 nM; at mTOR, 462 nM; in experiment [1] it was 92 nM; in experiment [2], 71 nM.
With `COc1ccc(-c2ccc3ncc4[nH]c(=O)n(-c5cn(C)nc5C)c4c3c2)cc1OC` [Example 111, 8-(3,4-Dimethoxy-phenyl)-1-(1,3-dimethyl-1H-pyrazol-4-yl)-1,3-dihydro-imidazo[4,5-c]quinolin-2-one], the IC50 on PI3K alpha was determined as 27 nM; on PI3K beta, 41 nM; at PI3K delta it was 50 nM; in experiment [3], 10 nM; in experiment [1], 13 nM; in experiment [2], 18 nM. Further, the IC50 in experiment [4] turned out to be 3 nM.
For `CCNc1cc(-c2ccc3ncc4c(c3c2)n(-c2cn(C)nc2C)c(=O)n4C)cnc1Cl` [Example 153.2, 8-(6-Chloro-5-ethylamino-pyridin-3-yl)-1-(1,3-dimethyl-1H-pyrazol-4-yl)-3-methyl-1,3-dihydro-imidazo[4,5-c]quinolin-2-one], the 50% inhibitory concentration (IC50) is 15 nM on PI3K alpha; 9 nM at PI3K beta; 3 nM on PI3K delta; below 3 nM at mTOR; below 5 nM in experiment [3]; below 5 nM in experiment [1]. Besides, in experiment [2], the IC50 worked out at 5 nM.
Take `CCNc1cc(-c2ccc3ncc4c(c3c2)n(-c2c(C)noc2C)c(=O)n4C)cnc1F` [Example 154.2, 1-(3,5-Dimethyl-isoxazol-4-yl)-8-(5-ethylamino-6-fluoro-pyridin-3-yl)-3-methyl-1,3-dihydro-imidazo[4,5-c]quinolin-2-one]: the IC50 stood at 173 nM at PI3K alpha; 76 nM on PI3K beta; 80 nM at PI3K delta; 253 nM in experiment [3]; 245 nM in experiment [1]; 458 nM in experiment [2]. Also, the IC50 in experiment [4] was 39 nM.
As for `CCOCc1cc(-c2ccc3ncc4c(c3c2)n(-c2c(C)nn(C)c2C)c(=O)n4C)cnc1N` [Example 166.5, 8-(6-Amino-5-ethoxymethyl-pyridin-3-yl)-3-methyl-1-(1,3,5-trimethyl-1H-pyrazol-4-yl)-1,3-dihydro-imidazo[4,5-c]quinolin-2-one], the half-inhibitory concentration (IC50) on PI3K alpha was 28 nM; at PI3K beta it was 222 nM; on PI3K delta it was 33 nM; in experiment [3], 301 nM; in experiment [2] it was 833 nM; in experiment [4], 91.7 nM.
`Cc1nn(C)cc1-n1c(=O)n(C)c2cnc3ccc(-c4cncc(C(C)(C)CO)c4)cc3c21` [Example 229, 1-(1,3-Dimethyl-1H-pyrazol-4-yl)-8-[5-(2-hydroxy-1,1-dimethyl-ethyl)-pyridin-3-yl]-3-methyl-1,3-dihydro-imidazo[4,5-c]quinolin-2-one]: the IC50 on PI3K alpha was 8 nM; at PI3K beta, 8 nM; at PI3K delta it was 5 nM; in experiment [3], 279 nM; in experiment [1], 275 nM; in experiment [2], 235 nM. Further, in experiment [4], the IC50 is 11 nM.
As to `CNc1ncc(-c2ccc3ncc4c(c3c2)n(-c2cn(C(C)C)nc2C)c(=O)n4C)cc1COC` [Example 248.1, 1-(1-Isopropyl-3-methyl-1H-pyrazol-4-yl)-8-(5-methoxymethyl-6-methylamino-pyridin-3-yl)-3-methyl-1,3-dihydro-imidazo[4,5-c]quinolin-2-one], the IC50 on PI3K alpha is 20 nM; on PI3K beta, 71 nM; on PI3K delta it was 4 nM; at mTOR, 113 nM; in experiment [3], below 5 nM; in experiment [1] it was 81 nM. Besides, the concentration for half-maximal inhibition (IC50) in experiment [2] turned out to be 73 nM.
With `CNc1ncc(-c2ccc3ncc4c(c3c2)n(-c2cn(C)nc2C)c(=O)n4C)cc1COC` [Example 248.3, 1-(1,3-Dimethyl-1H-pyrazol-4-yl)-8-(5-methoxymethyl-6-methylamino-pyridin-3-yl)-3-methyl-1,3-dihydro-imidazo[4,5-c]quinolin-2-one], the IC50 at PI3K alpha was 10 nM; at PI3K beta, 23 nM; on PI3K delta, below 3 nM; at mTOR, 15 nM; in experiment [3], 9 nM; in experiment [1], 25 nM. For the same molecule, in experiment [2], the IC50 amounted to 25 nM.
Regarding `CNc1ncc(-c2ccc3ncc4c(c3c2)n(-c2cn(C)nc2Cl)c(=O)n4C)cc1COC` [Example 248.4, 1-(3-Chloro-1-methyl-1H-pyrazol-4-yl)-8-(5-methoxymethyl-6-methylaminopyridin-3-yl)-3-methyl-1,3-dihydro-imidazo[4,5-c]quinolin-2-one], the IC50 was 7 nM on PI3K alpha; 8 nM on PI3K beta; below 3 nM at PI3K delta; 6 nM on mTOR; below 5 nM in experiment [3]; 8 nM in experiment [1]. Moreover, the half-maximal inhibitory concentration (IC50) in experiment [2] was determined as 8 nM.

The IC50 is the concentration needed to halve the response being measured.

The record behind these values is patent publication US20140005163A1 (NOVARTIS AG, priority 2010, published 2014).
